Laboratory results taken from BindingDB's records for doi:10.1016/s0960-894x(03)00742-x (Keio University, 2003).

Target: alpha-L-fucosidase (Bos taurus)
Assay: Inhibitory activity against alpha-Fucosidase in bovine kidney

Row | Structure (SMILES) | IC50 [µM]
1 | CCCCCCCCCCCCN[C@H]1CC(C)[C@@H](O)C(O)[C@@H]1O (stereo partly drawn) [(1R,3R,4S)-4-Dodecylamino-6-methyl-cyclohexane-1,2,3-triol] | 1.2
2 | C[C@@H]1CC(NCCc2ccccc2)[C@@H](O)[C@@H](O)[C@@H]1O (some centres not stated) | 7.5
